From patent US20140005163A1 (NOVARTIS AG, priority 2010, published 2014)
Where “and” joins values, the source holds several entries; their conditions need not be identical. Equal values may be shown once.

Legend:
[1] = target: T1, PI3K gamma (Homo sapiens, UniProt P48736); assay: PI3K gamma kinase assay (Kinase-Glo luminescence); assay type: biochemical
T1 construct: His tag (C); made in house; host or cells: baculovirus (pVL1393); Tn5 or TiniPro insect cells; construct from Roger Williams lab, MRC LMB
Summary of the method: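 PI3Kγ (150 nM) reaction run 120 min at room temperature with phosphatidylinositol substrate (10 μg/mL) and ATP (1 μM) in Tris pH 7.5 buffer containing MgCl2, NaCl, CHAPS and DTT. Remaining ATP detected by Kinase-Glo luminescence; 8 concentrations per compound, IC50 from 4-parameter curve fitting.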

[2] = Cellular CaCo2 permeability assay from apical to basal (A-B); assay type: in vitro ADME; conditions: human, Caco-2, read-out: Pe A-B (permeability)
Source text: The permeability in 10^−6 cm/s of compounds of formula (I) have been confirmed for selected example using a cellular CaCo2 permeability assay from apical to basal (A-B): […]

T1 sequence (P48736 144-1102 limits assumed): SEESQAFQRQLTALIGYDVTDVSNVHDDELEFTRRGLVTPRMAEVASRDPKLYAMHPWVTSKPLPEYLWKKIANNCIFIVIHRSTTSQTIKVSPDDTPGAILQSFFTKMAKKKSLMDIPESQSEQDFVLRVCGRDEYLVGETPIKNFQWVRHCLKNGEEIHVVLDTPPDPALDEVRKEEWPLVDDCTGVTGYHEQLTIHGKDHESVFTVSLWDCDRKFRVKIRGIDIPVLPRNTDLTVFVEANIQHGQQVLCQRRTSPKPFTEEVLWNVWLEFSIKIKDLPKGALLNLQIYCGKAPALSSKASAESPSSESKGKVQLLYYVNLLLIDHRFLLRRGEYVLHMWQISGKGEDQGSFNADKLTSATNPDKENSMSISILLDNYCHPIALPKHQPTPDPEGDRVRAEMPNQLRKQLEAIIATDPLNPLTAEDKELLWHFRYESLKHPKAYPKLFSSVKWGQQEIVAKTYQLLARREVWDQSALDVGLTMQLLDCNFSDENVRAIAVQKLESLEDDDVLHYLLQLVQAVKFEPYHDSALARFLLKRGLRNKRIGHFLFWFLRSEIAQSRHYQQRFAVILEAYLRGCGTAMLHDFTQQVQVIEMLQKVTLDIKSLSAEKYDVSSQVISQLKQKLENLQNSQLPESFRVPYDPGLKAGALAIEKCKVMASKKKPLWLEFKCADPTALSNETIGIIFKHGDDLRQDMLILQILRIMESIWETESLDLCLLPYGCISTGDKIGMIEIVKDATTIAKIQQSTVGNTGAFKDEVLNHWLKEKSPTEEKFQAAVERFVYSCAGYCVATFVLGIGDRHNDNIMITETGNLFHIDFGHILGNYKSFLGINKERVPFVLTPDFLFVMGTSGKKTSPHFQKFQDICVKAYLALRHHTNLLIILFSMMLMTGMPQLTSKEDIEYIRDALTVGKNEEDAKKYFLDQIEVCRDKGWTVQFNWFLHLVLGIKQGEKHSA

Compound | IC50 [1] | Papp A→B [2] [×10⁻⁶ cm/s]
COc1ccc(-c2ccc3ncc4c(c3c2)n(-c2c(C)nn(C)c2C)c(=O)n4C)cn1 [Example 2.4, 8-(6-Methoxy-pyridin-3-yl)-3-methyl-1-(1,3,5-trimethyl-1H-pyrazol-4-yl)-1,3-dihydro-imidazo[4,5-c]quinolin-2-one] | 199 nM | –
CCOc1ccc(-c2ccc3ncc4c(c3c2)n(-c2cn(CC(=O)N3CCOCC3)nc2C)c(=O)n4C)cn1 [Example 3.10, 8-(6-Ethoxy-pyridin-3-yl)-3-methyl-1-[3-methyl-1-(2-morpholin-4-yl-2-oxo-ethyl)-1H-pyrazol-4-yl]-1,3-dihydro-imidazo[4,5-c]quinolin-2-one] | 867 nM | –
CCn1cc(-n2c(=O)n(C)c3cnc4ccc(-c5ccc(N(C)C)nc5)cc4c32)c(C)n1 [Example 4.2, 8-(6-Dimethylamino-pyridin-3-yl)-1-(1-ethyl-3-methyl-1H-pyrazol-4-yl)-3-methyl-1,3-dihydro-imidazo[4,5-c]quinolin-2-one] | 242 nM | –
Cc1nn(C)c(C)c1-n1c(=O)n(C)c2cnc3ccc(-c4ccc(N(C)C)nc4)cc3c21 [Example 4.3, 8-(6-Dimethylamino-pyridin-3-yl)-3-methyl-1-(1,3,5-trimethyl-1H-pyrazol-4-yl)-1,3-dihydro-imidazo[4,5-c]quinolin-2-one] | 142 nM | –
Cc1nn(C(C)C)cc1-n1c(=O)n(C)c2cnc3ccc(-c4ccc(N5CCC5)nc4)cc3c21 [Example 5.2, 8-(6-Azetidin-1-yl-pyridin-3-yl)-1-(1-isopropyl-3-methyl-1H-pyrazol-4-yl)-3-methyl-1,3-dihydro-imidazo[4,5-c]quinolin-2-one] | 227 nM | –
Cc1ccc(-c2ccc3ncc4c(c3c2)n(-c2cn(C)nc2C)c(=O)n4C)cn1 [Example 7.2, 1-(1,3-Dimethyl-1H-pyrazol-4-yl)-3-methyl-8-(6-methyl-pyridin-3-yl)-1,3-dihydro-imidazo[4,5-c]quinolin-2-one] | 191 nM | –
CNC(=O)c1ccc(-c2ccc3ncc4c(c3c2)n(-c2cn(C)nc2C)c(=O)n4C)cn1 [Example 15.1, 5-[1-(1,3-Dimethyl-1H-pyrazol-4-yl)-3-methyl-2-oxo-2,3-dihydro-1H-imidazo[4,5-c]quinolin-8-yl]-pyridine-2-carboxylic acid methylamide] | 528 nM | –
Cc1nn(C(C)C)cc1-n1c(=O)n(C)c2cnc3ccc(-c4ccc(CO)nc4)cc3c21 [Example 16.3, 8-(6-hydroxymethyl-pyridin-3-yl)-1-(1-isopropyl-3-methyl-1H-pyrazol-4-yl)-3-methyl-1,3-dihydro-imidazo[4,5-c]quinolin-2-one] | 408 nM and 359 nM | –
CCn1cc(-n2c(=O)n(C)c3cnc4ccc(-c5cnc(OC)nc5)cc4c32)c(C)n1 [Example 17.1, 1-(1-Ethyl-3-methyl-1H-pyrazol-4-yl)-8-(2-methoxy-pyrimidin-5-yl)-3-methyl-1,3-dihydro-imidazo[4,5-c]quinolin-2-one] | 386 nM | –
COc1ncc(-c2ccc3ncc4c(c3c2)n(-c2cn(C)nc2C)c(=O)n4C)cn1 [Example 17.2, 1-(1,3-Dimethyl-1H-pyrazol-4-yl)-8-(2-methoxy-pyrimidin-5-yl)-3-methyl-1,3-dihydro-imidazo[4,5-c]quinolin-2-one] | 873 nM | –
CCOc1ccc(-c2ccc3ncc4c(c3c2)n(-c2c(C)nn(C)c2C)c(=O)n4C)cc1OC [Example 29.2, 8-(4-Ethoxy-3-methoxy-phenyl)-3-methyl-1-(1,3,5-trimethyl-1H-pyrazol-4-yl)-1,3-dihydro-midazo[4,5-c]quinolin-2-one] | 145 nM | –
COCCOc1ccc(-c2ccc3ncc4c(c3c2)n(-c2cn(C)nc2C)c(=O)n4C)cc1OC [Example 30.1, 1-(1,3-Dimethyl-1H-pyrazol-4-yl)-8-[3-methoxy-4-(2-methoxy-ethoxy)-phenyl]-3-methyl-1,3-dihydro-imidazo[4,5-c]quinolin-2-one] | 178 nM | –
Cc1nn(C)c(C)c1-n1c(=O)n(C)c2cnc3ccc(-c4cccc(O)c4)cc3c21 [Example 32.2, 8-(3-Hydroxy-phenyl)-3-methyl-1-(1,3,5-trimethyl-1H-pyrazol-4-yl)-1,3-dihydro-imidazo[4,5-c]quinolin-2-one] | 160 nM | –
CNC(=O)c1ccc(-c2ccc3ncc4c(c3c2)n(-c2cn(C)nc2C)c(=O)n4C)cc1 [Example 43.1, 4-[1-(1,3-Dimethyl-1H-pyrazol-4-yl)-3-methyl-2-oxo-2,3-dihydro-1H-imidazo[4,5-c]quinolin-8-yl]-N-methyl-benzamide] | 150 nM | –
Cc1nn(CC(=O)N(C)C)cc1-n1c(=O)n(C)c2cnc3ccc(-c4ccc(-n5cccn5)cc4)cc3c21 [Example 51.2, N,N-Dimethyl-2-{3-methyl-4-[3-methyl-2-oxo-8-(4-pyrazol-1-yl-phenyl)-2,3-dihydro-imidazo[4,5-c]quinolin-1-yl]-pyrazol-1-yl}-acetamide] | 138 nM | –
CCOc1ncc(-c2ccc3ncc4c(c3c2)n(-c2cn(C)nc2C)c(=O)n4C)cn1 [Example 52, 1-(1,3-Dimethyl-1H-pyrazol-4-yl)-8-(2-ethoxy-pyrimidin-5-yl)-3-methyl-1,3-dihydro-imidazo[4,5-c]quinolin-2-one] | 597 nM | –
COCc1cncc(-c2ccc3ncc4c(c3c2)n(-c2cn(C)nc2Cl)c(=O)n4C)c1 [Example 54.2, 1-(3-Chloro-1-methyl-1H-pyrazol-4-yl)-8-(5-methoxymethyl-pyridin-3-yl)-3-methyl-1,3-dihydro-imidazo[4,5-c]quinolin-2-one] | – | 33.5
CCn1cc(-n2c(=O)n(C)c3cnc4ccc(-c5cncc(OC(C)C)c5)cc4c32)c(C)n1 [Example 58.4, 1-(1-Ethyl-3-methyl-1H-pyrazol-4-yl)-8-(5-isopropoxy-pyridin-3-yl)-3-methyl-1,3-dihydro-imidazo[4,5-c]quinolin-2-one] | 253 nM | –
COCCOc1cncc(-c2ccc3ncc4c(c3c2)n(-c2cn(C)nc2C)c(=O)n4C)c1 [Example 59.1, 1-(1,3-Dimethyl-1H-pyrazol-4-yl)-8-[5-(2-methoxy-ethoxy)-pyridin-3-yl]-3-methyl-1,3-dihydro-imidazo[4,5-c]quinolin-2-one] | 179 nM | –
COCCn1c(=O)n(C)c2ncc(-c3ccc4ncc5c(c4c3)n(-c3cn(C)nc3C)c(=O)n5C)cc21 [Example 69, 1-(1,3-Dimethyl-1H-pyrazol-4-yl)-8-[1-(2-methoxy-ethyl)-3-methyl-2-oxo-2,3-dihydro-1H-imidazo[4,5-b]pyridin-6-yl]-3-methyl-1,3-dihydro-imidazo[4,5-c]quinolin-2-one] | 646 nM | –
CCOc1cc(-c2ccc3ncc4c(c3c2)n(-c2cn(C)nc2C)c(=O)n4C)ccn1 [Example 91, 1-(1,3-Dimethyl-1H-pyrazol-4-yl)-8-(2-ethoxy-pyridin-4-yl)-3-methyl-1,3-dihydro-imidazo[4,5-c]quinolin-2-one] | 250 nM | –
COc1ccc(-c2ccc3ncc4c(c3c2)n(-c2cn(CCO)nc2C)c(=O)n4C)cn1 [Example 103.1, 1-[1-(2-Hydroxy-ethyl)-3-methyl-1H-pyrazol-4-yl]-8-(6-methoxy-pyridin-3-yl)-3-methyl-1,3-dihydro-imidazo[4,5-c]quinolin-2-one] | 191 nM | –
CCOc1ccc(-c2ccc3ncc4c(c3c2)n(-c2cn(CC(=O)N(C)CC)nc2C)c(=O)n4C)cn1 [Example 136, 2-{4-[8-(6-Ethoxy-pyridin-3-yl)-3-methyl-2-oxo-2,3-dihydro-imidazo[4,5-c]quinolin-1-yl]-3-methyl-pyrazol-1-yl}-N-ethyl-N-methyl-acetamide] | – | 17
CNc1ncc(-c2ccc3ncc4c(c3c2)n(-c2cn(C)nc2C)c(=O)n4C)cc1Cl [Example 146.1, 8-(5-Chloro-6-methylamino-pyridin-3-yl)-1-(1,3-dimethyl-1H-pyrazol-4-yl)-3-methyl-1,3-dihydro-imidazo[4,5-c]quinolin-2-one] | – | 29.1
CNc1cc(-c2ccc3ncc4c(c3c2)n(-c2cn(C)nc2C)c(=O)n4C)cnc1COC [Example 159, 1-(1,3-Dimethyl-1H-pyrazol-4-yl)-8-(6-methoxymethyl-5-methylamino-pyridin-3-yl)-3-methyl-1,3-dihydro-imidazo[4,5-c]quinolin-2-one] | – | 13.9
CCOc1cc(-c2ccc3ncc4c(c3c2)n(-c2cn(C)nc2C)c(=O)n4C)cnc1COC [Example 197.1, 1-(1,3-Dimethyl-1H-pyrazol-4-yl)-8-(5-ethoxy-6-methoxymethyl-pyridin-3-yl)-3-methyl-1,3-dihydro-imidazo[4,5-c]quinolin-2-one] | – | 15.8
Cc1nn(C(C)C)cc1-n1c(=O)n(C)c2cnc3ccc(-c4cncc(C(C)(C)O)c4)cc3c21 [Example 215.1, 8-[5-(1-Hydroxy-1-methyl-ethyl)-pyridin-3-yl]-1-(1-isopropyl-3-methyl-1H-pyrazol-4-yl)-3-methyl-1,3-dihydro-imidazo[4,5-c]quinolin-2-one] | – | 5.9
CCn1cc(-n2c(=O)n(C)c3cnc4ccc(-c5cnc(OC)nc5OC)cc4c32)c(C)n1 [Example 234.1, 8-(2,4-Dimethoxy-pyrimidin-5-yl)-1-(1-ethyl-3-methyl-1H-pyrazol-4-yl)-3-methyl-1,3-dihydro-imidazo[4,5-c]quinolin-2-one] | – | 35.5
CCn1c(=O)n(-c2cn(C)nc2C)c2c3nc(-c4ccc(OC)c(OC)c4)ccc3ncc21 [Example 251, 8-(3,4-Dimethoxy-phenyl)-1-(1,3-dimethyl-1H-pyrazol-4-yl)-3-ethyl-1,3-dihydro-1,3,5,9-tetraaza-cyclopenta[a]naphthalen-2-one] | 212 nM | –
COc1ccc(-c2ccc3ncc4c(c3n2)n(-c2cc(C)nn2C)c(=O)n4C)cc1OC [Example 253, 8-(3,4-Dimethoxy-phenyl)-1-(2,5-dimethyl-2H-pyrazol-3-yl)-3-methyl-1,3-dihydro-1,3,5,9-tetraaza-cyclopenta[a]naphthalen-2-one] | 88 nM | –
